Assays:
[1] = biological target: T1, β5 subunit of the human constitutive proteasome (CPS) (Homo sapiens, UniProt P28074); assay: β5 inhibition assay, human constitutive proteasome (Suc-LLVY-AMC); format: biochemical; conditions: IC50 class, Suc-LLVY-AMC substrate
T1 construct: purchased Boston Biochem E-360
Procedure: The enzymatic activity of the β5 subunit of the human constitutive proteasome (CPS) is analyzed. In another assay, which differs from the assay of the human constitutive proteasome only in using the human immunoproteasome (IPS) the enzymatic activity of the β5 subunit of the human immunoproteasome (IPS) is analyzed. […] Inhibition is indicated as IC50 [nM] (“-”=not measured).

hPMBC = assay: Chymotrypsin-like ProteasomeGlo assay in hPBMC; format: cell-based; conditions: Homo sapiens; read-out: Pglo hPBMC
In short: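 B cells isolated from human PBMC (buffy coats, density gradient, magnetic isolation). Cells treated with compound for 105 min at 37 °C, with staurosporine and DMSO included. Chymotrypsin-like proteasome activity read by luminescence with Suc-LLVY-Glo substrate to derive IC50.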

HT-29 cells = assay: CellTiter-Glo luminescent cell viability assay with HT-29 cells (72h incubation); format: cell-based, human; conditions: Homo sapiens, HT-29, HT29 cells, read-out: CTG HT29
In short: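 400 cells per well in DMEM/10% FCS were dosed after 24 h and kept 72 h at 37 °C, 5% CO2. ATP-based luminescence (CellTiter-Glo) normalized to DMSO and 10 μM staurosporine controls; IC50 by dose-response fit.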

Row | IC50 [1] [nM] | IC50 (hPMBC) [nM] | IC50 (HT-29 cells) [nM] | SMILES
1 | < 100 | 100 to 500 | < 100 | Cc1ccc2cc1CNC(=O)C(CCc1cnc3nccnc3c1)NC(=O)[C@@H](NC(=O)OCc1ccccc1)CC(=O)N1CCCC(CCO2)C1 (stereo partly drawn) [Compound 505, benzyl ((12S)-5^4-methyl-8,11,14-trioxo-9-(2-(pyrido[2,3-b]pyrazin-7-yl)ethyl)-4-oxa-7,10-diaza-1(3,1)-piperidina-5(1,3)-benzenacyclotetradecaphane-12-yl)carbamate]
2 | < 100 | < 100 | 100 to 500 | CC(=O)N[C@H]1CC(=O)N2CCCC(CCOc3ccc(C)c(c3)CNC(=O)C(c3cn(C)cn3)NC1=O)C2 (stereo partly drawn) [Compound 557, N-((12S)-5^4-methyl-9-(1-methyl-1H-imidazol-4-yl)-8,11,14-trioxo-4-oxa-7,10-diaza-1(3,1)-piperidina-5(1,3)-benzenacyclotetradecaphane-12-yl)acetamide]
3 | < 100 | < 100 | < 100 | Cc1ccc2cc1CNC(=O)[C@H](CCc1ccccc1)NC(=O)[C@@H](NC(=O)OCc1ccccc1)CC(=O)N1CCCC(CCO2)C1 (stereo partly drawn) [Compound 7, benzyl ((9S,12S)-5^4-methyl-8,11,14-trioxo-9-phenethyl-4-oxa-7,10-diaza-1(3,1)-piperidina-5(1,3)-benzenacyclotetradecaphane-12-yl)carbamate]
4 | < 100 | < 100 | < 100 | CCOC(C(=O)N[C@H]1CC(=O)N2CCCC(CCOc3ccc(C)c(c3)CNC(=O)[C@H](CCc3ccccc3)NC1=O)C2)c1ccc(N)cc1 (stereo partly drawn) [Compound 345, 2-(4-aminophenyl)-2-ethoxy-N-((9S,12S)-5^4-methyl-8,11,14-trioxo-9-phenethyl-4-oxa-7,10-diaza-1(3,1)-piperidina-5(1,3)-benzenacyclotetradecaphane-12-yl)acetamide]
5 | < 100 | < 100 | < 100 | Cc1ccc2cc1CNC(=O)[C@H](CCc1ccccc1)NC(=O)[C@@H](NC(=O)OCc1ccccc1)CCCCC(=O)N1CC(CCO2)C1 [Compound 353, benzyl ((9S,12S)-5^4-methyl-8,11,17-trioxo-9-phenethyl-4-oxa-7,10-diaza-1(3,1)-azetidina-5(1,3)-benzenacycloheptadecaphane-12-yl)carbamate]
6 | < 100 | < 100 | < 100 | Cc1ccc2cc1CNC(=O)[C@H](CCc1ccccc1)NC(=O)[C@@H](NC(=O)Cc1ccccc1F)CC(=O)N1CCCC(CCO2)C1 (stereo partly drawn) [Compound 333, 2-(2-fluorophenyl)-N-((9S,12S)-5^4-methyl-8,11,14-trioxo-9-phenethyl-4-oxa-7,10-diaza-1(3,1)-piperidina-5(1,3)-benzenacyclotetradecaphane-12-yl)acetamide]
7 | < 100 | < 100 | < 100 | CC(=O)N[C@H]1CC(=O)N2CCCC(CCOc3ccc(C)c(c3)CNC(=O)C(CCc3ccncc3)NC1=O)C2 (stereo partly drawn) [Compound 551, N-((12S)-5^4-methyl-8,11,14-trioxo-9-(2-(pyridin-4-yl)ethyl)-4-oxa-7,10-diaza-1(3,1)-piperidina-5(1,3)-benzenacyclotetradecaphane-12-yl)acetamide]
8 | < 100 | < 100 | < 100 | Cc1ccc2cc1CNC(=O)C(c1cnn(C)c1)NC(=O)[C@@H](NC(=O)[C@@H](C)c1ccccc1)CC(=O)N1CCCC(CCO2)C1 (stereo partly drawn) [Compound 359, (2S)-N-((12S)-5^4-methyl-9-(1-methyl-1H-pyrazol-4-yl)-8,11,14-trioxo-4-oxa-7,10-diaza-1(3,1)-piperidina-5(1,3)-benzenacyclotetradecaphane-12-yl)-2-phenylpropanamide]
9 | < 100 | 100 to 500 | < 100 | CC(=O)N[C@H]1CC(=O)N2CCCC(CCOc3ccc(C)c(c3)CNC(=O)C(c3ccc4ncccc4c3)NC1=O)C2 (stereo partly drawn) [Compound 554, N-((12S)-5^4-methyl-8,11,14-trioxo-9-(quinolin-6-yl)-4-oxa-7,10-diaza-1(3,1)-piperidina-5(1,3)-benzenacyclotetradecaphane-12-yl)acetamide]
10 | 500 to 1000 | 100 to 500 | 100 to 500 | CC(=O)N[C@H]1CC(=O)N(C)CCCCOc2ccc(C)c(c2)CNC(=O)[C@H](CCc2ccccc2)NC1=O [Compound 296, N-(1^4,7-dimethyl-8,11,14-trioxo-13-phenethyl-2-oxa-7,12,15-triaza-1(1,3)-benzenacyclohexadecaphane-10-yl)acetamide]
11 | < 100 | 100 to 500 | < 100 | Cc1ccc2cc1CNC(=O)[C@H](CCc1ccccc1)NC(=O)[C@@H](NC(=O)CC(C)(C)C)CC(=O)N1CCCC(CCO2)C1 (stereo partly drawn) [Compound 28, 3,3-dimethyl-N-((9S,12S)-5^4-methyl-8,11,14-trioxo-9-phenethyl-4-oxa-7,10-diaza-1(3,1)-piperidina-5(1,3)-benzenacyclotetradecaphane-12-yl)butanamide]
12 | < 100 | < 100 | < 100 | Cc1ccc2cc1CNC(=O)[C@H](CCc1ccccc1)NC(=O)[C@@H](NC(=O)OCc1ccccc1)CCCCC(=O)NCCCCO2 [Compound 347, benzyl ((13S,16S)-1^4-methyl-8,14,17-trioxo-16-phenethyl-2-oxa-7,15,18-triaza-1(1,3)-benzenacyclononadecaphane-13-yl)carbamate]
13 | < 100 | < 100 | < 100 | CC(=O)c1ccc(CC(=O)N[C@H]2CC(=O)N3CCCC(CCOc4ccc(C)c(c4)CNC(=O)[C@H](CCc4ccccc4)NC2=O)C3)cc1 (stereo partly drawn) [Compound 341, 2-(4-acetylphenyl)-N-((9S,12S)-54-methyl-8,11,14-trioxo-9-phenethyl-4-oxa-7,10-diaza-1(3,1)-piperidina-5(1,3)-benzenacyclotetradecaphane-12-yl)acetamide]
14 | < 100 | < 100 | < 100 | CC(=O)N[C@H]1CC(=O)N2CCCC(CCOc3ccc(C)c(c3)CNC(=O)C(CCC3CCN(C(C)=O)CC3)NC1=O)C2 (stereo partly drawn) [Compound 338, N-((12S)-9-(2-(1-acetylpiperidin-4-yl)ethyl)-5^4-methyl-8,11,14-trioxo-4-oxa-7,10-diaza-1(3,1)-piperidina-5(1,3)-benzenacyclotetradecaphane-12-yl)acetamide]
15 | < 100 | < 100 | < 100 | CC(=O)N[C@H]1CC(=O)N2CCCC(CCOc3ccc(C)c(c3)CNC(=O)C(CCc3nccs3)NC1=O)C2 (stereo partly drawn) [Compound 563, N-((12S)-5^4-methyl-8,11,14-trioxo-9-(2-(thiazol-2-yl)ethyl)-4-oxa-7,10-diaza-1(3,1)-piperidina-5(1,3)-benzenacyclotetradecaphane-12-yl)acetamide]
16 | < 100 | < 100 | < 100 | Cc1ccc2cc1CNC(=O)[C@@H](CCc1ccccc1)NC(=O)[C@H](NC(=O)C(C)(C)CS)CC(=O)N1CCCC(CCO2)C1 (stereo partly drawn) [Compound 348, 3-mercapto-2,2-dimethyl-N-((9S,12S)-5^4-methyl-8,11,14-trioxo-9-phenethyl-4-oxa-7,10-diaza-1(3,1)-piperidina-5(1,3)-benzenacyclotetradecaphane-12-yl)propanamide]
17 | < 100 | 500 to 1000 | 100 to 500 | Cc1ccc2cc1CNC(=O)[C@H](CCc1ccccc1)NC(=O)[C@@H](NC(=O)OCc1ccccc1)CCCC(=O)NCCCCO2 [Compound 322, benzyl ((12S,15S)-1^4-methyl-8,13, 16-trioxo-15-phenethyl-2-oxa-7,14,17-triaza-1(1,3)-benzenacyclooctadecaphane-12-yl)carbamate]
18 | < 100 | < 100 | < 100 | CC(=O)N[C@H]1CC(=O)N2CCCC(CCOc3ccc(C)c(c3)CNC(=O)C(Cc3ccccc3)NC1=O)C2 (stereo partly drawn) [Compound 558, N-((12S)-9-benzyl-5^4-methyl-8,11,14-trioxo-4-oxa-7,10-diaza-1(3,1)-piperidina-5(1,3)-benzenacyclotetradecaphane-12-yl)acetamide]
19 | > 5000 | 1000 to 5000 | 100 to 500 | CC(=O)N[C@H]1CCC(=O)N2CC3CC(Oc4ccc(C)c(c4)CNC(=O)[C@H](CCc4ccccc4)NC1=O)C3C2 (stereo partly drawn) [Compound 299, N-(3^4-methyl-6,9,13-trioxo-7-phenethyl-2-oxa-13,5,8-triaza-1(6,3)-bicyclo[3.2.0]heptana-3(1,3)-benzenacyclotridecaphane-10-yl)acetamide]
20 | < 100 | 100 to 500 | < 100 | Cc1ccc2cc1CNC(=O)[C@H](CCc1ccccc1)NC(=O)[C@@H](NC(=O)Cc1nc(-c3ccncc3)n[nH]1)CC(=O)N1CCCC(CCO2)C1 (stereo partly drawn) [Compound 329, N-((9S,12S)-5^4-methyl-8,11,14-trioxo-9-phenethyl-4-oxa-7,10-diaza-1(3,1)-piperidina-5(1,3)-benzenacyclotetradecaphane-12-yl)-2-(3-(pyridin-4-yl)-1H-1,2,4-triazol-5-yl)acetamide]

Row | SMILES | IC50 [1] [nM] | IC50 (hPMBC) [nM] | IC50 (HT-29 cells) [nM]
21 | Cc1ccc2cc1CNC(=O)[C@H](CCc1ccccc1)NC(=O)[C@@H](NC(=O)OCc1ccccc1)CC(=O)N1CC(CCO2)CC2CCCCC21 (stereo partly drawn) [Compound 314, benzyl ((9S,12S)-5^4-methyl-8,11,14-trioxo-9-phenethyl-11,12,13,14,14a,15,16,17,18,18a-decahydro-4-oxa-7,10-diaza-1(3,1)-quinolina-5(1,3)-benzenacyclotetradecaphane-12-yl)carbamate] | < 100 | < 100 | < 100
